Values quoted from earlier work, collected in patent US20050031575A1, “Block copolymers” (priority 2001, published 2005).

Tested on: solid tumours
Conditions: micelles ranging in size from 20-60 nm that accumulate in solid tumours

Substance: poly(ethylene glycol-aspartate) block copolymer doxorubicin conjugates
- antitumour activity: exhibit antitumour activity
